{"source": "patent US20210093730A1", "about": "“BIOMARKERS FOR ANTIBODY-DRUG CONJUGATE MONOTHERAPY OR COMBINATION THERAPY” (Immunomedics, Inc., priority 2019, published 2021)", "key": {"[1]": {"test_system": "MDA-MB-231 human breast cancer cells", "conditions": "cells with induced resistance to SN-38; cited from earlier work"}, "[2]": {"test_system": "NCI-N87-S120 human gastric cancer cells", "conditions": "cells with induced resistance to SN-38; cited from earlier work"}, "TNBC xenografts": {"test_system": "TNBC xenografts", "conditions": "in combination with sacituzumab govitecan; independent of BRCA1/2 mutation status; cited from earlier work"}, "[3]": {"test_system": "metastatic colorectal cancer", "conditions": "cited from earlier work"}, "[4]": {"test_system": "relapsed metastatic ovarian cancer", "assay": "Therapy of relapsed metastatic ovarian cancer with IMMU-130 plus prexasertib (case, Example 7)", "conditions": "one patient"}, "[5]": {"test_system": "advanced colorectal cancer", "conditions": "cited from earlier work"}, "[6]": {"test_system": "platinum-resistant urothelial cancer", "conditions": "cited from earlier work"}, "recurrent SCLC": {"test_system": "recurrent SCLC", "conditions": "cited from earlier work"}, "urothelial carcinoma [7]": {"test_system": "urothelial carcinoma", "conditions": "docetaxel-alone control arm; cited from earlier work"}, "NCI-N87-S120 xenografts": {"test_system": "NCI-N87-S120 xenografts", "conditions": "in combination with IMMU-132; cited from earlier work"}, "urothelial carcinoma [8]": {"test_system": "urothelial carcinoma", "conditions": "cited from earlier work"}, "SCLC [9]": {"test_system": "SCLC", "conditions": "28 patients; cited from earlier work"}, "SCLC [10]": {"test_system": "SCLC", "conditions": "cited from earlier work"}}, "note": "Where two headings read alike, the source gives them in different places."}
{"compound": "COc1ccc2c3c([nH]c2c1)[C@H](CC(C)C)N1C(=O)[C@H](CCC(=O)OC(C)(C)C)NC(=O)[C@@H]1C3", "note": "[Kol43]", "values": [{"measurement": "effect on toxicity of SN-38", "setting": "[1]", "result": "restored toxicity of SN-38"}, {"measurement": "effect on toxicity of SN-38", "setting": "[2]", "result": "restored toxicity of SN-38"}]}
{"compound": "Cn1ncnc1[C@H]1c2n[nH]c(=O)c3cc(F)cc(c23)N[C@@H]1c1ccc(F)cc1", "note": "[talazoparib]", "values": [{"measurement": "effect on tumor growth", "setting": "TNBC xenografts", "result": "synergistic inhibition of tumor growth"}]}
{"compound": "O=C(c1cc(Cc2n[nH]c(=O)c3ccccc23)ccc1F)N1CCN(C(=O)C2CC2)CC1", "note": "[olaparib]", "values": [{"measurement": "effect on tumor growth", "setting": "TNBC xenografts", "result": "synergistic inhibition of tumor growth"}]}
{"compound": "labetuzumab govitecan", "values": [{"measurement": "patients with a reduction in tumor size and plasma CEA levels", "setting": "[3]; 72 assessable patients", "result": 38, "unit": "%"}, {"measurement": "patients with partial response", "setting": "[3]; 72 assessable patients", "result": "One"}, {"measurement": "patients with stable disease", "setting": "[3]; 72 assessable patients", "result": 42, "unit": "patients"}, {"measurement": "median OS", "setting": "[3]; human, in vivo", "result": 6.9, "unit": "months"}, {"measurement": "median PFS", "setting": "[3]; human, in vivo", "result": 3.6, "unit": "months"}, {"measurement": "response by RECIST criteria", "setting": "[4]; IMMU-130 10 mg/kg plus prexasertib 105 mg/m^2", "result": "partial response"}, {"measurement": "decrease of the sum of the diameters of the index lesions", "setting": "[4]; IMMU-130 plus prexasertib", "result": 45, "unit": "%"}, {"measurement": "toxicity", "setting": "[4]; IMMU-130 plus prexasertib", "result": "transient grade 2 neutropenia and some initial diarrhea"}]}
{"compound": "CCc1c2c(nc3ccc(OC(=O)N4CCC(N5CCCCC5)CC4)cc13)-c1cc3c(c(=O)n1C2)COC(=O)[C@]3(O)CC", "note": "[irinotecan]", "values": [{"measurement": "response to irinotecan", "setting": "[5]; TDP1 IVS12+79 G/G genotype", "result": 64, "unit": "%"}, {"measurement": "response to irinotecan", "setting": "[5]; TDP1 IVS12+79 T/T genotype", "result": 25, "unit": "%"}, {"measurement": "incidence of grade 3/4 neutropenia", "setting": "[5]; TOP1 IVS4+61 A/A genotype (small sample size)", "result": 50, "unit": "%"}, {"measurement": "incidence of grade 3/4 neutropenia", "setting": "[5]; TOP1 IVS4+61 G/G genotype", "result": 8, "unit": "%"}, {"measurement": "overall response rate", "setting": "[6]; 95% confidence interval 1%-17%", "result": 5, "unit": "%"}, {"measurement": "duration of a complete response", "setting": "[6]; human, in vivo", "result": 33, "unit": "months"}, {"measurement": "overall survival", "setting": "[6]; human, in vivo", "result": 5.4, "unit": "months"}]}
{"compound": "COc1ccc2c3c([nH]c2c1)[C@H](C=C(C)C)N1C(=O)[C@@H]2CCCN2C(=O)[C@@H]1C3", "note": "[fumitremorgin C]", "values": [{"measurement": "effect on toxicity of SN-38", "setting": "[1]", "result": "restored toxicity of SN-38"}, {"measurement": "effect on toxicity of SN-38", "setting": "[2]", "result": "restored toxicity of SN-38"}]}
{"compound": "nivolumab: anti-PD1 checkpoint inhibitor antibody", "values": [{"measurement": "disease-control rate", "setting": "recurrent SCLC; combination with ipilimumab", "result": 32, "unit": "%"}, {"measurement": "response rate", "setting": "recurrent SCLC; nivolumab alone", "result": 10, "unit": "%"}]}
{"compound": "CC(=O)O[C@@]12CO[C@@H]1C[C@H](O)[C@@]1(C)C(=O)[C@H](O)C3=C(C)[C@@H](OC(=O)[C@H](O)[C@@H](NC(=O)OC(C)(C)C)c4ccccc4)C[C@@](O)([C@@H](OC(=O)c4ccccc4)[C@H]21)C3(C)C", "note": "[docetaxel]", "values": [{"measurement": "progression-free survival", "setting": "urothelial carcinoma [7]", "result": 10.4, "unit": "weeks"}, {"measurement": "response rate", "setting": "urothelial carcinoma [7]", "result": 5, "unit": "%"}]}
{"compound": "CCN(CC)CC(=O)OC1CCN(c2ccc(/C=C(\\C#N)c3ccc(OC)c(OC)c3)s2)CC1.CS(=O)(=O)O", "note": "[YHO-13351]", "values": [{"measurement": "effect on toxicity of SN-38", "setting": "[1]", "result": "restored toxicity of SN-38"}, {"measurement": "median survival of mice", "setting": "NCI-N87-S120 xenografts", "result": "increased median survival"}, {"measurement": "effect on toxicity of SN-38", "setting": "[2]", "result": "restored toxicity of SN-38"}]}
{"compound": "Nc1nc2[nH]cc(CCc3ccc(C(=O)N[C@@H](CCC(=O)O)C(=O)O)cc3)c2c(=O)[nH]1", "note": "[pemetrexed]", "values": [{"measurement": "objective response rate", "setting": "urothelial carcinoma [8]; 95% confidence interval 1%-9%", "result": 5, "unit": "%"}, {"measurement": "median progression-free survival", "setting": "urothelial carcinoma [8]; in vivo", "result": 2.4, "unit": "months"}]}
{"compound": "CNCc1ccc(-c2[nH]c3cc(F)cc4c3c2CCNC4=O)cc1", "note": "[rucaparib]", "values": [{"measurement": "effect on tumor growth", "setting": "TNBC xenografts", "result": "synergistic inhibition of tumor growth"}]}
{"compound": "CC[C@@]1(O)C(=O)OCc2c1cc1n(c2=O)Cc2cc3c(CN(C)C)c(O)ccc3nc2-1", "note": "[topotecan]", "values": [{"measurement": "PR", "setting": "SCLC [9]", "result": 11, "unit": "%"}, {"measurement": "median survival", "setting": "SCLC [9]", "result": 5, "unit": "months"}, {"measurement": "one-year survival", "setting": "SCLC [9]", "result": 3.5, "unit": "%"}, {"measurement": "objective response rate", "setting": "SCLC [10]; chemoresistant frontline patients", "result": 5, "unit": "%"}, {"measurement": "objective response rate", "setting": "SCLC [10]; chemosensitive patients", "result": 17, "unit": "%"}, {"measurement": "grade >=3 anemia", "setting": "SCLC [10]; in vivo", "result": 24, "unit": "%"}, {"measurement": "grade >=3 neutropenia", "setting": "SCLC [10]; in vivo", "result": 69, "unit": "%"}, {"measurement": "grade >=3 thrombocytopenia", "setting": "SCLC [10]; in vivo", "result": 1, "unit": "%"}, {"measurement": "patients who died from this chemotherapy", "setting": "SCLC [10]; in vivo", "result": "approximately 2%"}]}
